Results reported in US10064858B2, “Methods and compositions for treating bacterial infections with iron chelators” (THE UNITED STATES OF AMERICA, AS REPRESENTED BY THE …, priority 2011, dated 2018).
Read-outs that look alike come from different tables or passages of the source.

How the values were obtained:
Type in all cases: cell-based
[1] = test system: AB5075 a MDR-clinical isolate of A. baumannii; assay: Time-kill assay in CAMHB; settings: for effect on CFU/ml (time-kill, FIG. 13): 2 and 6 hours; for time-kill course of CFU/mL: 24 hours (FIG. 8A)
Method: Reductions in colony forming units (CFU)/mL were determined over time (time-kill assay) after exposure to VK28 and deferiprone (DFP), the two iron chelators that performed best in MIC assays when compared to controls. To better represent the iron content found in the human body, MIC and time-kill assays were also determined in minimal media and tissue culture media. Time-Kill assays were performed as previously described in G. P. Neupane et al., “In vitro time-kill activities of ciprofloxacin alone and in combination with the iron chelator deferasirox against Vibrio vulnificus,” European Journal of Clinical Microbiology and Infectious Diseases, 407-410 (2010); and R. L. White, et al., “Comparison of Three Different In Vitro Methods of Detecting synergy: Time-Kill, Checkerboard, and E test,” Journal of Antimicrobial Agents and Chemotherapy, 1914-1918 (1996). Initial inocula, for example 1×10^6 CFU/mL or 1×10^7 CFU/mL were challenged with iron chelator with and/or without an antibiotic. Cells were allowed to grow in CAMHB at 37° C. for 24 hours. Time-kill results were analyzed by determining the change in log 10 numbers of CFU/ml at 0, 6, and 24 h, compared to counts at 0 h. Antimicrobials were considered bactericidal at the lowest concentration that reduced the size of the original inoculum by >3 log 10 CFU/ml (99.9%) over each of the time periods and were considered bacteriostatic if the inoculum's size was reduced by 0 to <3 log 10 CFU/ml.
(§1) In this example, time-kill assays were performed as described in Example 9 using Apo6619 as the iron chelator against AB5075 (MRSN959), the MDR-clinical isolate of A. baumannii. The initial inocula was 1×10^6 CFU/mL, and were challenged with 0.5×MIC, 1×MIC and 2×MIC of Apo6619. Time-kill results were analyzed by determining the change in log 10 numbers of CFU/mL at 0, 2 and 4 hours.
as §1, with “VK28 or DFP” for “Apo6619”, “AB5075,” for “AB5075 (MRSN959),”, “either VK28 or DFP.” for “Apo6619.”, “at” for “at 0,”, “6” for “4”

S. aureus = assay: MIC, CLSI microdilution (Tables 1 and 6); settings: Staphylococcus aureus, Table 1, read-out: MIC of Iron Chelators
Method: (§2) The minimal inhibitory concentration (MIC) of non-toxic iron chelators was determined against standard strains of MDR bacteria and clinical isolates according to the guidelines of the Clinical and Laboratory Standards Institute (CLSI).
(§3) Individual MICs were determined following the microdilution method recommended by CLSI in cationic-adjusted Mueller-Hinton Broth (CAMHB), or M9 media. […] Tests were performed in triplicate. MIC of iron chelators were determined for noscomial ESKAPE pathogens.
(§4) MIC were determined in CAMHB media as described above in Example 8.

P. aeruginosa [2] = assay: MIC, CLSI microdilution (Tables 1 and 6); settings: Pseudomonas aeruginosa, Table 1, read-out: MIC of Iron Chelators
Method: as §2, §3, §4

K. pneumonia [3] = assay: MIC, CLSI microdilution (Tables 1 and 6); settings: Klebsiella pneumoniae, Table 1, read-out: MIC of Iron Chelators
Method: as §2, §3, §4

Acinetobacter baumannii [4] = assay: MIC, CLSI microdilution (Tables 1 and 6)
Method: as §2, §3, §4

E. coli [5] = assay: MIC, CLSI microdilution (Tables 1 and 6); settings: Escherichia coli, Table 1, read-out: MIC of Iron Chelators
Method: as §2, §3, §4

P. aeruginosa [6] = assay: MIC in RPMI1640 media (Table 2); settings: Pseudomonas aeruginosa
Method: (§5) […] […] Tests were performed in triplicate. MIC of iron chelators were determined for noscomial ESKAPE pathogens.
(§6) This media is closer to the iron levels in the human body. MICs are in ug/mL.

K. pneumonia [7] = assay: MIC in RPMI1640 media (Table 2); settings: Klebsiella pneumoniae
Method: as §5, §6

Acinetobacter baumannii [8] = assay: MIC in RPMI1640 media (Table 2)
Method: as §5, §6

E. coli [9] = assay: MIC in RPMI1640 media (Table 2)
Method: as §5, §6

[10] = test system: clinical isolates of A. baumannii; assay: MIC for clinical isolates in CAMHB media (Table 3); settings: Acinetobacter baumannii
Method: as §3

Question: For `OCCN1CCN(Cc2ccc(O)c3ncccc23)CC1` [VK28, 5-(4-(2-hydroxyethyl)piperazin-1-ylmethyl)-8-hydroxyquinoline], which “effect on CFU/ml (time-kill, FIG. 13)” value ([1]; 0.5 MIC) is on record?
Answer: inhibitory effect on the CFU/ml

Question: What about the “CFU/mL at 24 hours” value ([1]; 0.5 MIC, CAMHB) of the same compound?
Answer: about 1×10^9 CFU/mL

Question: And the “time-kill course of CFU/mL” value ([1]; 0.5×MIC, CAMHB)?
Answer: initial decrease in CFU/mL at 2 and 6 hours, but rebounded

Question: And the “effect on CFU/ml (time-kill, FIG. 13)” value ([1]; 1×MIC)?
Answer: inhibitory effect on the CFU/ml

Question: And the “time-kill course of CFU/mL” value ([1]; 1×MIC, CAMHB)?
Answer: did not increase in CFU over the 24 hour period

Question: What about the “effect on CFU/ml (time-kill, FIG. 13)” value ([1]; 2×MIC) of the same compound?
Answer: inhibitory effect on the CFU/ml

Question: What about the “time-kill course of CFU/mL” value ([1]; 2×MIC, CAMHB) of the same compound?
Answer: decrease in CFU/mL after 2 hours that was sustained through the 24 hour period

Question: What about the MIC (S. aureus; ATCC25923, ATCC 25923) of the same compound?
Answer: 250 µg/mL

Question: What about the MIC (S. aureus; ATCC 43300 (MRSA)) of the same compound?
Answer: 250 µg/mL

Question: What about the MIC (P. aeruginosa [2]; ATCC27853, ATCC 27853) of the same compound?
Answer: > 500 µg/mL

Question: And the MIC (P. aeruginosa [2]; PAO1)?
Answer: > 500 µg/mL

Question: And the MIC (K. pneumonia [3]; ATCC700603, ATCC 700603)?
Answer: > 500 µg/mL

Question: What about the MIC (K. pneumonia [3]; BAA2146, BAA-2146) of the same compound?
Answer: > 500 µg/mL

Question: What about the MIC (Acinetobacter baumannii [4]; ATCC17978, ATCC 17978, Table 1, read-out: MIC of Iron Chelators) of the same compound?
Answer: 125 µg/mL

Question: And the MIC (Acinetobacter baumannii [4]; ATCC19606, ATCC 19606, Table 1, read-out: MIC of Iron Chelators)?
Answer: 125 µg/mL

Question: What about the MIC (E. coli [5]; ATCC35218, ATCC 35218) of the same compound?
Answer: > 500 µg/mL

Question: And the MIC (E. coli [5]; ATCC43888, ATCC 43888 (0157:H7))?
Answer: > 500 µg/mL

Question: What about the MIC (P. aeruginosa [6]; ATCC27853, ATCC 27853, read-out: MIC of Iron Chelators) of the same compound?
Answer: 16 µg/mL

Question: What about the MIC (P. aeruginosa [6]; PAO1, read-out: MIC of Iron Chelators) of the same compound?
Answer: 16 µg/mL

Question: And the MIC (K. pneumonia [7]; ATCC700603, ATCC 700603, read-out: MIC of Iron Chelators)?
Answer: 16 µg/mL

Question: And the MIC (K. pneumonia [7]; BAA2146, BAA-2146, read-out: MIC of Iron Chelators)?
Answer: 16 µg/mL

Question: What about the MIC (Acinetobacter baumannii [8]; ATCC17978, ATCC 17978, read-out: MIC of Iron Chelators) of the same compound?
Answer: 32 µg/mL

Question: What about the MIC (Acinetobacter baumannii [8]; ATCC19606, ATCC 19606, read-out: MIC of Iron Chelators) of the same compound?
Answer: 8 µg/mL

Question: What about the MIC (E. coli [9]; Escherichia coli, 35718, read-out: MIC of Iron Chelators) of the same compound?
Answer: 32 µg/mL

Question: What about the MIC (E. coli [9]; Escherichia coli, ATCC43888, ATCC 43888 (0157:H7), read-out: MIC of Iron Chelators) of the same compound?
Answer: 8 µg/mL

Question: And the MIC ([10]; AB967, read-out: MIC of Iron Chelators)?
Answer: 250 µg/mL

Question: What about the MIC ([10]; AB2828, read-out: MIC of Iron Chelators) of the same compound?
Answer: 250 µg/mL

Question: And the MIC ([10]; AB3340, read-out: MIC of Iron Chelators)?
Answer: 250 µg/mL

Question: And the MIC ([10]; AB3560, read-out: MIC of Iron Chelators)?
Answer: 250 µg/mL

Question: What about the MIC ([10]; AB3638, read-out: MIC of Iron Chelators) of the same compound?
Answer: 250 µg/mL

Question: What about the MIC ([10]; AB3785, read-out: MIC of Iron Chelators) of the same compound?
Answer: 250 µg/mL

Question: What about the MIC ([10]; AB3806, read-out: MIC of Iron Chelators) of the same compound?
Answer: 500 µg/mL

Question: What about the MIC ([10]; AB3917, read-out: MIC of Iron Chelators) of the same compound?
Answer: 500 µg/mL

Question: And the MIC ([10]; AB3927, read-out: MIC of Iron Chelators)?
Answer: 250 µg/mL

Question: And the MIC ([10]; AB4025, read-out: MIC of Iron Chelators)?
Answer: 250 µg/mL

Question: What about the MIC ([10]; AB4026, read-out: MIC of Iron Chelators) of the same compound?
Answer: 250 µg/mL

Question: And the MIC ([10]; AB4027, read-out: MIC of Iron Chelators)?
Answer: 250 µg/mL

Question: And the MIC ([10]; AB4052, read-out: MIC of Iron Chelators)?
Answer: 500 µg/mL

Question: And the MIC ([10]; AB4269, read-out: MIC of Iron Chelators)?
Answer: 250 µg/mL

Question: What about the MIC ([10]; AB4448, read-out: MIC of Iron Chelators) of the same compound?
Answer: 250 µg/mL

Question: And the MIC ([10]; AB4456, read-out: MIC of Iron Chelators)?
Answer: 250 µg/mL

Question: And the MIC ([10]; AB4490, read-out: MIC of Iron Chelators)?
Answer: 250 µg/mL

Question: What about the MIC ([10]; AB4498, read-out: MIC of Iron Chelators) of the same compound?
Answer: 500 µg/mL

Question: What about the MIC ([10]; AB4795, read-out: MIC of Iron Chelators) of the same compound?
Answer: 250 µg/mL

Question: And the MIC ([10]; AB4857, read-out: MIC of Iron Chelators)?
Answer: 500 µg/mL

Question: What about the MIC ([10]; AB4878, read-out: MIC of Iron Chelators) of the same compound?
Answer: 500 µg/mL

Question: And the MIC ([10]; AB4932, read-out: MIC of Iron Chelators)?
Answer: 500 µg/mL

Question: What about the MIC ([10]; AB4957, read-out: MIC of Iron Chelators) of the same compound?
Answer: 500 µg/mL

Question: What about the MIC ([10]; AB4991, read-out: MIC of Iron Chelators) of the same compound?
Answer: 250 µg/mL

Question: And the MIC ([10]; AB5001, read-out: MIC of Iron Chelators)?
Answer: 250 µg/mL

Question: What about the MIC ([10]; AB5075, read-out: MIC of Iron Chelators) of the same compound?
Answer: 250 µg/mL

Question: And the MIC ([10]; AB5197, read-out: MIC of Iron Chelators)?
Answer: 250 µg/mL

Question: And the MIC ([10]; AB5256, read-out: MIC of Iron Chelators)?
Answer: 250 µg/mL

Question: What about the MIC ([10]; AB5674, read-out: MIC of Iron Chelators) of the same compound?
Answer: 250 µg/mL

Question: And the MIC ([10]; AB5711, read-out: MIC of Iron Chelators)?
Answer: 250 µg/mL
